Data published in US9199983B2, “3-aryl-6-aryl-[1,2,4]triazolo[4,3-α]pyridines as inhibitors of cell proliferation and the use thereof” (priority 2010, dated 2015).
Counter-ions that a name gives are not always drawn.

Tests used:
[1] = tested on: liver cancer cell line HepG2; assay: MTT cancer cell cytotoxicity assay, HepG2; type: cell-based, human; conditions: Homo sapiens, HepG2 cells, 48-72 h
Procedure, shortened: (§1)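 Seeding: HepG2 and A549 at 3000, SMMC7721 at 5000, B16F10 at 2000 cells/well, attached overnight. Compounds (10 μM to 1 nM, triplicate) were applied for 48-72 h at 37 °C, followed by 4 h MTT. A550 minus A660 was fitted for IC50, with untreated wells as maximum and reference-drug total kill as background.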

[2] = tested on: liver cancer cell line SMMC7721; assay: MTT cancer cell cytotoxicity assay, SMMC7721; type: cell-based, human; conditions: Homo sapiens, SMMC-7721, SMMC7721 cells, 48-72 h
Procedure, shortened: as §1

caspase-3 activation = assay: Caspase-3 activation (apoptosis induction) in T-47D cells; type: cell-based; conditions: Homo sapiens; T47D cells, 24 h treatment; read-out: EC50 to induce caspase-3 activation, T47D
Description: Identification of 3-(2-methoxyphenyl)-6-(4-methoxyphenyl)-[1,2,4]triazolo[4,3-a]pyridine and analogs as inducers of apoptosis in solid tumor cells
Human breast cancer cell line T-47D and lung cancer cell line A549, growing in DMEM/F12+10% FBS media were seeded to a density of 20000 cells/well in 96-well cell culture plate and grew overnight (18-24 h) in CO2 cell culture incubator at 37° C. Next day the medium were removed by aspiration and […] fresh growth media was added to each well followed by […] of growth media containing 10× concentration of reference or testing compounds with 10% DMSO. Twenty four hours later, cell culture plates were centrifuged at 1000 g for 5 min and the supernatant was removed by emptying contents into a reservoir. Fifty μl of Lysis Buffer (10 mM Tris, pH7.5, 0.1M NaCl, 1 Mm EDTA, 0.01% Triton X-100) was added to each well and the plates were incubated with gentle agitation on an orbital shaker at 4° C. for 30 min. The plates were then centrifuged at 1000 g for 10 min at 4° C. and 20 μl of the supernatant was transferred from each well to a corresponding well in a black 384-well. Twenty μl of caspase-3 assay buffer (20 mM PIPES, pH7.4, 4 Mm EDTA and 0.2% CHAPS) containing 20 μM fluorogenic caspase-3 substrate ((Ac-DEVD)2-R110, AnaSpec Cat #60304-5) was added to each well. The samples were mixed by agitation and incubated at 37° C. for 3 h. The fluorescent intensity of each well was read on a fluorescent plate reader (Varioskan Flash, Thermo Fisher Scientific) with excitation wavelength at 496 nm and emission wavelength at 520 nm. The activity of compounds on caspase-3 activation was determined by plotting the relative fluorescent unit (RFU) against the testing concentrations of the compounds. The EC50 values were determined by fitting the above responding curves into Prism sigmoidal dose-response equation (GraphPad Software, Inc).

[3] = tested on: breast cancer cell line T47D; assay: MTT cancer cell cytotoxicity assay, T47D; type: cell-based, human; conditions: Homo sapiens, T47D cells, 48-72 h
Procedure, shortened: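 Human T47D breast cancer cells, cultured per ATCC recommendations with 10% fetal bovine serum and penicillin/streptomycin, were plated at 3000 cells/well in 96-well plates. After overnight attachment they were exposed in triplicate to compounds (10 μM to 1 nM) for 48-72 h. MTT was then added for 4 h and the formazan dissolved in DMSO. Absorbance at 550 nm minus 660 nm was fitted in Prism 5 to give IC50.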

[4] = tested on: Human lung cancer cell line A549; assay: MTT cancer cell cytotoxicity assay, A549; type: cell-based; conditions: Homo sapiens, A549 cells, 48-72 h
Procedure, shortened: as §1

[5] = tested on: mouse melanoma cell line B16F10; assay: MTT cancer cell cytotoxicity assay, B16F10; type: cell-based; conditions: Mus musculus, B16-F10, B16F10 cells, 48-72 h
Description: Identification of 3-(2-methoxyphenyl)-6-(4-methoxyphenyl)-[1,2,4]triazolo[4,3-a]pyridine and analogs as inhibitors of cell proliferation that were evaluated with standard MTT cancer cell cytotoxicity assay (IC50)
Human lung cancer cell line A549, breast cancer cell line T47D, liver cancer cell lines HepG2 and SMMC7721 as well as a mouse melanoma cell line B16F10 were used in the study. The cells were cultured in corresponding growth media recommended by American Type Culture Collection (ATCC) with the supplementation of penicillin G (100 U/ml)/streptomycin (100 µg/ml), and 10% fetal bovine serum (Hangzhou Sijiqing Biological Engineering Materials, Co., Ltd. China) at 37° C. in a humidified atmosphere containing 5% CO2. Cells at about 80% confluency were harvested by trypsinization. Cells were centrifuged, re-suspended in fresh growth media and counted. Corresponding numbers of cells were seeded to 96-well cell culture plates (HepG2 cell, T-47D and A549 cells at 3000 cells/well, SMMC-7721 cells at 5000 cells/well and B16F10 cells at 2000 cells/well) in a total volume of […]. Cells were incubated in CO2 incubator over night to allow the cells to attach. In next day, […] of medium containing testing (from 10 μM to 1 nM) or reference compounds was added to each well of the cells. Media without compound were used as 100% control. Cells were treated with each concentration of compounds in triplicates to ensure data accuracy. Cells were incubated with compounds in CO2 incubator for an additional 48-72 h at 37° C. After incubation, cells were removed from the CO2 incubator and […] of 5 mg/ml MTT (3-(4,5-dimethylthiazole-2-yl)-2,5-diphenyltetrazoliumbromide, Sigma) solution in PBS was added to each well. Cells were returned to CO2 incubator and incubated for additional 4 h. After the incubation, media were removed by aspiration and […] DMSO was added to each well. Plates were sealed with aluminum foil and shaked mildly on an orbital shaker for 10 min at room temperature. The absorption was measured at 550 nm with a plate reader (Varioskan Flash, Thermo Fisher Scientific) with 660 nm reading used as background control. The relative absorbance readings were calculated by subtracting readings at 660 nm from that at 550 nm. The relative absorbance was plotted again the concentrations of the testing compounds and the plots were fitted with a one-site lg(IC50) equation using Prism 5 software (GraphPad Software, Inc). The equation used in the curve fitting is as follows: relative absorbance reading=background reading+(maximal reading−brackground reading)/(1+10 ^(compound concentration-log IC50)). The background reading used in the calculation was obtained with 100% cell death using a reference anticancer drug, whereas the maximal reading was obtained in the well with no added compound. The IC50 value calculated from the equation represents the cytotoxic potency of a particular compound.

Compound	IC50 [1] [nM]	IC50 [2] [nM]	EC50 (caspase-3 activation) [nM]	IC50 [3] [nM]	IC50 [4] [nM]	IC50 [5] [nM]
CNc1ccc(-c2ccc3nnc(-c4ccccc4OC)n3c2)cc1 [Example 48, 6-(4-Methylaminophenyl)-3-(2-methoxyphenyl)-[1,2,4]triazolo[4,3-a]pyridine hydrochloride]	31	11	74	18	26	
COc1ccc(-c2ccc3nnc(-c4ccc(Cl)cc4OC)n3c2)cc1F [Example 49, 3-(4-Chloro-2-methoxyphenyl)-6-(3-fluoro-4-methoxyphenyl)-[1,2,4]triazolo[4,3-a]pyridine]	3.3	4.6	9.3	4.5	4.9	4.9
COc1ccc(-c2ccc3nnc(-c4ccc([N+](=O)[O-])cc4OC)n3c2)cc1 [Example 70, 3-(2-Methoxy-4-nitrophenyl)-6-(4-methoxyphenyl)-[1,2,4]triazolo[4,3-a]pyridine]	22	9.9	22	13	6.7	4.4
COc1ccc(-c2ccc3nnc(-c4ccc(C)cc4OC)n3c2)cc1N [Example 52, 6-(3-Amino-4-methoxyphenyl)-3-(2-methoxy-4-methylphenyl)-[1,2,4]triazolo[4,3-a]pyridine]	2.3	1.8	5.4	2	2.6	2.1
COc1ccc(-c2ccc3nnc(-c4ccccc4OC)n3c2)cc1O [Example 20, 6-(3-Hydroxy-4-methoxyphenyl)-3-(2-methoxyphenyl)-[1,2,4]triazolo[4,3-a]pyridine]	11	> 10000	16	18	13	18
COc1ccccc1-c1nnc2ccc(-c3ccc(N(C)C)cc3)cn12 [Example 17, 6-(4-Dimethylaminophenyl)-3-(2-methoxyphenyl)-[1,2,4]triazolo[4,3-a]pyridine]	48	14	86	65	29	
COc1ccc(-c2ccc3nnc(-c4ccc(OC)cc4OC)n3c2)cc1 [Example 71, 3-(2,4-Dimethoxyphenyl)-6-(4-methoxyphenyl)-[1,2,4]triazolo[4,3-a]pyridine]	15	8.7	117	22	16	
COc1ccc(-c2ccc3nnc(-c4ccc(Cl)cc4OC)n3c2)cc1N [Example 50, 6-(3-Amino-4-methoxyphenyl)-3-(4-chloro-2-methoxyphenyl)-[1,2,4]triazolo[4,3-a]pyridine]	1.4	1.3	3.5	1.1	1.7	1.6
CNc1ccc(-c2ccc3nnc(-c4ccc(Cl)cc4OC)n3c2)cc1 [Example 88, 3-(4-Chloro-2-methoxyphenyl)-6-(4-methylaminophenyl)-[1,2,4]triazolo[4,3-a]pyridine]	6	1.8		3.6	4.4	5.1
COc1ccc(-c2ccc3nnc(-c4ccccc4OC)n3c2)cc1N [Example 46, 6-(3-Amino-4-methoxyphenyl)-3-(2-methoxyphenyl)-[1,2,4]triazolo[4,3-a]pyridine hydrochloride]	9.9	5.7	23	9.7	9.4	3.7
COc1ccc(-c2ccc3nnc(-c4ccc(C)cc4OC)n3c2)cc1F [Example 53, 6-(3-Fluoro-4-methoxyphenyl)-3-(2-methoxy-4-methylphenyl)-[1,2,4]triazolo[4,3-a]pyridine]	5.7	8.3	9.1	6.7	7.4	6.2
COc1ccc(-c2ccc3nnc(-c4ccc(Cl)cc4OC)n3c2)cc1O [Example 89, 3-(4-Chloro-2-methoxyphenyl)-6-(3-hydroxy-4-methoxyphenyl)-[1,2,4]triazolo[4,3-a]pyridine]	1.4	> 10000	2.3	0.84	1.6	1.1
COc1ccccc1-c1nnc2ccc(-c3ccc(OC(C)C)cc3)cn12 [Example 6, 6-(4-Isopropoxyphenyl)-3-(2-methoxyphenyl)-[1,2,4]triazolo[4,3-a]pyridine]	1160	535		697	1060	591
COc1ccc(-c2ccc3nnc(-c4ccc(Br)cc4OC)n3c2)cc1 [Example 59, 3-(4-Bromo-2-methoxyphenyl)-6-(4-methoxyphenyl)-[1,2,4]triazolo[4,3-a]pyridine]	7.1	3.8	25	6.6	12	6.1
COc1ccc(-c2ccc3nnc(-c4ccc(C(F)(F)F)cc4OC)n3c2)cc1 [Example 60, 3-(2-Methoxy-4-trifluoromethylphenyl)-6-(4-methoxyphenyl)-[1,2,4]triazolo[4,3-a]pyridine]	41	18		68	91	37
COc1ccc(-c2ccc3nnc(-c4ccc(C)cc4OC)n3c2)cc1O [Example 51, 6-(3-Hydroxy-4-methoxyphenyl)-3-(2-methoxy-4-methylphenyl)-[1,2,4]triazolo[4,3-a]pyridine]	1.1	> 10000	2.8	1.1	4	2.1
COc1ccccc1-c1nnc2ccc(-c3ccccc3)cn12 [Example 24, 3-(2-Methoxyphenyl)-6-phenyl-[1,2,4]triazolo[4,3-a]pyridine]	> 10000	> 10000		> 10000	> 10000	> 10000
